Data from ChEMBL document CHEMBL5154749 (Eur J Med Chem, 2022).

What was measured:
[1] = target: Serine/threonine-protein kinase ATR (Homo sapiens, UniProt Q13535); test: Inhibition of human recombinant full length ATR using GST-cMyc-p53 as substrate incubated for 40 mins in presence of ATP by HTRF assay
[2] = tested on: HT-29; test: Cytotoxicity against ATM proficient human HT-29 cells assessed as reduction in cell viability incubated for 72 hrs by MTT assay; type: functional, cell-based; conditions: HT-29, 72 h

Sequence of Serine/threonine-protein kinase ATR (Q13535 whole entry): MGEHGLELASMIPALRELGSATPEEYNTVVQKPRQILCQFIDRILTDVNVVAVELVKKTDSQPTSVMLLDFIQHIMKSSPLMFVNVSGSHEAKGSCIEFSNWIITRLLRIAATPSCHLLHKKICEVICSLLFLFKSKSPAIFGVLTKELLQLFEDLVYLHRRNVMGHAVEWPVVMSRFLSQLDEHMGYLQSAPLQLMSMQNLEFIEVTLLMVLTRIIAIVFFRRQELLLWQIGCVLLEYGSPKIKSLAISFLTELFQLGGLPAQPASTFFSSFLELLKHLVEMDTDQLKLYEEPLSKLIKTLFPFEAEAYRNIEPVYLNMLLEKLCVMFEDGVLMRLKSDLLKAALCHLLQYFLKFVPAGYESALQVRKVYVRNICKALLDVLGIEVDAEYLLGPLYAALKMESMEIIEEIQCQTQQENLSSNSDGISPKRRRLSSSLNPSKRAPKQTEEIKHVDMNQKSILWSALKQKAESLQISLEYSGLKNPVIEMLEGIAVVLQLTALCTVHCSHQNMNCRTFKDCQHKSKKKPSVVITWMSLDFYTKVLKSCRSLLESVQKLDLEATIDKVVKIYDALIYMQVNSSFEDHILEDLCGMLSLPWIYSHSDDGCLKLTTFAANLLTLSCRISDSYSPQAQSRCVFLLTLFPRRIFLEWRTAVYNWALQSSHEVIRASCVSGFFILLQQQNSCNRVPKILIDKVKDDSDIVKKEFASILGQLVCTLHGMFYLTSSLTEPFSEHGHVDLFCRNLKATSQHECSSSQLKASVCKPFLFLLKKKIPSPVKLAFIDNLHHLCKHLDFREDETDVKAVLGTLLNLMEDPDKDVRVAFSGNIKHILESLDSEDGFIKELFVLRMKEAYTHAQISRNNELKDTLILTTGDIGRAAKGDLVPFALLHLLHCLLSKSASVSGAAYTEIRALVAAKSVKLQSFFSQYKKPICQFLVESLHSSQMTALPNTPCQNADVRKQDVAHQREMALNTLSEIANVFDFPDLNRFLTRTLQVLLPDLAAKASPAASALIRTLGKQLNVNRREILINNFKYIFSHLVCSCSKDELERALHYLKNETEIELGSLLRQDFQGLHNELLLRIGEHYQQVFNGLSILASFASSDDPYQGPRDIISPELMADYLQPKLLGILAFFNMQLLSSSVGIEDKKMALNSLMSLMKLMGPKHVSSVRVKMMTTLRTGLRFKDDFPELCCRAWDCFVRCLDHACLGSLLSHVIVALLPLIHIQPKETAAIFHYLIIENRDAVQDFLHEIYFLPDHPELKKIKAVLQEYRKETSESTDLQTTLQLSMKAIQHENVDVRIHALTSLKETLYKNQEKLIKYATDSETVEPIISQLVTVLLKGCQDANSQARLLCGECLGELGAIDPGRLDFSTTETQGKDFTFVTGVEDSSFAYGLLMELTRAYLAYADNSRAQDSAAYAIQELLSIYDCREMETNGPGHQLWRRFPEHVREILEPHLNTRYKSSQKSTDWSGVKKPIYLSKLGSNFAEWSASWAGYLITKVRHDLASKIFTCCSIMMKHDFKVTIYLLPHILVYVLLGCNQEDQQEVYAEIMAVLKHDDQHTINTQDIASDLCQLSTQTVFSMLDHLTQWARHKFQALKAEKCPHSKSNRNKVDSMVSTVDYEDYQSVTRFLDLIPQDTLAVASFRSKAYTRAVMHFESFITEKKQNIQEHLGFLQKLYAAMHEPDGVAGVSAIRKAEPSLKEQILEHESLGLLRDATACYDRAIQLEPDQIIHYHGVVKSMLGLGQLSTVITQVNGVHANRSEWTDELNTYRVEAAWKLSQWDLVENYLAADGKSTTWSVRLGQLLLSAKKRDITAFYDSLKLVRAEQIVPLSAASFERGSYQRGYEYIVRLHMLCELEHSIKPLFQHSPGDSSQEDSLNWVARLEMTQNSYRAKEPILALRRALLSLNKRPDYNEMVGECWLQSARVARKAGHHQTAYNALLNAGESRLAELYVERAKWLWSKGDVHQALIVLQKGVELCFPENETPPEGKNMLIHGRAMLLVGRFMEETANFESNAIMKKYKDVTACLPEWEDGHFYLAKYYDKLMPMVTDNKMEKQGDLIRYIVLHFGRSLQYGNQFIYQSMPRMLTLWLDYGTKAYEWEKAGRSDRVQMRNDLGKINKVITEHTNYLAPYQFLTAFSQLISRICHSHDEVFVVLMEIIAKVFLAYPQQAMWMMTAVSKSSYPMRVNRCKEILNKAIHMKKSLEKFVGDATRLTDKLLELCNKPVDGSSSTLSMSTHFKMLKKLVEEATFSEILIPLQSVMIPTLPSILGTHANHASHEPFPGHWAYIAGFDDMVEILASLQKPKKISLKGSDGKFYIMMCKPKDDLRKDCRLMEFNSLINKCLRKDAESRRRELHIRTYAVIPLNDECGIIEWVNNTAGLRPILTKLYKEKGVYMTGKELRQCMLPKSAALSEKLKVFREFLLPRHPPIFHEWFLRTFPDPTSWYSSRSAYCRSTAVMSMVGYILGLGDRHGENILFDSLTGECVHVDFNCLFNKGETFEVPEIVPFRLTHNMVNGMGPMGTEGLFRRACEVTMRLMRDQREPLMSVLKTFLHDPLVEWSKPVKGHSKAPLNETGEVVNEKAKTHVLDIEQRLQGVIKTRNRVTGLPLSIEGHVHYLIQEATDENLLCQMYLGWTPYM

Row | Compound | IC50 [1] [nM] | IC50 [2] [nM]
1 | C[C@@H]1COCCN1c1nc(-c2cc[nH]n2)nc2ccc(-c3ccnn3C)cc12 | > 10000 | –
2 | CC(C)n1c(=O)n(C)c2cnc3cc(F)c(-c4ccc(OCCCN5CCCCC5)nc4)cc3c21 [AZD-1390] | – | > 10000
3 | C[C@@H]1COCCN1c1nc(-c2cnn(C3CCNCC3)c2)nc2ccc(-c3ccnn3C)cc12 | > 10000 | –
4 | Cn1nccc1-c1ccc2nc(-c3cccc4[nH]ccc34)nc(N3CCC[C@H](N)C3)c2c1 | > 10000 | –
5 | Cc1ccc2[nH]ncc2c1-c1nc(N2CCOC[C@H]2C)c2cc(-c3ccnn3C)ccc2n1 | > 10000 | –
6 | C[C@@H]1COCCN1c1nc(-c2c[nH]c3ncc(F)cc23)nc2ccc(-c3ccnn3C)cc12 | 3550 | –
7 | C[C@@H]1COCCN1c1nc(-c2cccc3[nH]ccc23)nc2ccc(-c3ccccc3)cc12 | 2980 | –
8 | C[C@@H]1COCCN1c1nc(-c2cccc3[nH]ccc23)nc2ccc(-c3ccc(C#N)nc3)cc12 | > 10000 | –
9 | Cn1nccc1-c1ccc2nc(-c3cccc4[nH]ccc34)nc(N3CCC(N)C3)c2c1 (configuration not stated) | > 10000 | –
10 | C[C@@H]1COCCN1c1nc(-c2cc(C(F)(F)F)cc3[nH]ccc23)nc2ccc(-c3ccnn3C)cc12 | > 10000 | –
11 | C[C@@H]1CN(c2nc(-c3cccc4[nH]ccc34)nc3ccc(-c4ccnn4C)cc23)C[C@H](C)O1 | > 10000 | –
12 | Cn1nccc1-c1ccc2nc(-c3cccc4[nH]ccc34)nc(N3CCN(S(C)(=O)=O)CC3)c2c1 | > 10000 | –
13 | C[C@@H]1CNCCN1c1nc(-c2cccc3[nH]ccc23)nc2ccc(-c3ccnn3C)cc12 | > 10000 | –
14 | C[C@@H]1COCCN1c1nc(-c2c[nH]c3ncccc23)nc2ccc(-c3ccnn3C)cc12 | 3320 | –
15 | COC(=O)C1CN(c2nc(-c3cccc4[nH]ccc34)nc3ccc(-c4ccnn4C)cc23)CCO1 (configuration not stated) | > 10000 | –
16 | Cn1nccc1-c1ccc2nc(-c3cccc4[nH]ccc34)nc(N3CC[C@H](N)C3)c2c1 | > 10000 | –
17 | C[C@@H]1COCCN1c1nc(-c2cn[nH]c2)nc2ccc(-c3ccnn3C)cc12 | > 10000 | –
18 | Cn1nccc1-c1ccc2nc(-c3cccc4[nH]ccc34)nc(N3CCC[C@@H](N)C3)c2c1 | > 10000 | –

The remaining compounds from weak to strong by IC50 [1], led by results:

Row | IC50 [1] [nM] | Compound | IC50 [2] [nM]
19 | 2790 | C[C@@H]1COCCN1c1nc(-c2cccc3[nH]ccc23)nc2ccc(-c3ccsc3)cc12 | –
20 | 2440 | Cc1ncc(-c2ccc3nc(-c4cccc5[nH]ccc45)nc(N4CCOC[C@H]4C)c3c2)s1 | –
21 | 2370 | C[C@@H]1COCCN1c1nc(-c2cccc3[nH]ccc23)nc2ccc(-c3ccoc3)cc12 | –
22 | 1770 | C[C@@H]1COCCN1c1nc(-c2cnc3[nH]ccc3c2)nc2ccc(-c3ccnn3C)cc12 | –
23 | 901 | CCOC(c1ccc2nc(-c3cccc4[nH]ccc34)nc(N3CCOC[C@H]3C)c2c1)n1cccn1 (some centres not stated) | –
24 | 700 | C[C@@H]1COCCN1c1nc(-c2cccc3[nH]ccc23)nc2ccc(-c3cnn(C)c3)cc12 | –
25 | 700 | C[C@H]1COCCN1c1nc(-c2cccc3[nH]ccc23)nc2ccc(-c3ccnn3C)cc12 | –
26 | 609 | Cn1nccc1-c1ccc2nc(-c3cccc4[nH]ccc34)nc(N3CC4CC3CO4)c2c1 (configuration not stated) | –
27 | 578 | C[C@@H]1COCCN1c1nc(-c2cccc3[nH]ccc23)nc2ccc(-c3ccc(N4CCOCC4)nc3)cc12 | –
28 | 435 | C[C@@H]1COCCN1c1nc(-c2cccc3[nH]ccc23)nc2ccc(-c3ccnn3C3CCCCO3)cc12 (some centres not stated) | –
29 | 289 | C[C@@H]1COCCN1c1nc(-c2cccc3[nH]ccc23)nc2ccc(-c3cccn3C)cc12 | –
30 | 275 | C[C@@H]1COCCN1c1nc(-c2cccc3[nH]ccc23)nc2ccc(-c3ccncc3)cc12 | –
31 | 215 | C[C@@H]1COCCN1c1nc(-c2c[nH]c3ccccc23)nc2ccc(-c3ccnn3C)cc12 | –
32 | 194 | C[C@@H]1COCCN1c1nc(-c2cccc3[nH]ccc23)nc2ccc(-c3ccc(=O)n(C)c3)cc12 | –
33 | 183 | C[C@@H]1COCCN1c1nc(-c2cccc3[nH]ccc23)nc2ccc(-c3cccnc3)cc12 | –
34 | 115 | C[C@@H]1COCCN1c1nc(-c2ccnc3[nH]ccc23)nc2ccc(-c3ccnn3C)cc12 | –
35 | 96 | C[C@@H]1COCCN1c1nc(-c2cc(F)cc3[nH]ccc23)nc2ccc(-c3ccnn3C)cc12 | –
36 | 89 | Cn1nccc1-c1ccc2nc(-c3cccc4[nH]ccc34)nc(N3CCOCC3)c2c1 | –
37 | 83 | CC(C)n1nccc1-c1ccc2nc(-c3cccc4[nH]ccc34)nc(N3CCOC[C@H]3C)c2c1 | –
38 | 45 | Cn1nccc1-c1ccc2nc(-c3cccc4[nH]ccc34)nc(N3CC4CCC(C3)O4)c2c1 | –
39 | 33 | C[C@@H]1COCCN1c1nc(-c2cccc3[nH]ccc23)nc2ccc(-c3cncn3C)cc12 | –
40 | 32 | Cc1noc(C)c1-c1ccc2nc(-c3cccc4[nH]ccc34)nc(N3CCOC[C@H]3C)c2c1 | –
41 | 25 | Cn1nccc1-c1ccc2nc(-c3cccc4[nH]ccc34)nc(N3C4CCC3COC4)c2c1 | –
42 | 18 | CCn1nccc1-c1ccc2nc(-c3cccc4[nH]ccc34)nc(N3CCOC[C@H]3C)c2c1 | –
